Data: US12419874B2, “GLP-1R agonist compound and use thereof” (Chongqing Pharmaceutical Research Institute Co., Ltd., priority 2024, dated 2025)

Columns and labels:
GLP-1R [1] = biological target: T1, GLP-1R (Homo sapiens, UniProt P43220); experiment: GLP-1R agonistic activity by cAMP detection kit in HEK293-GLP-1R-luc cells (Example 58); format: cell-based; details: 30 min incubation
Experimental: The agonistic activities of the compounds of the present disclosure on GLP-1R were evaluated by detecting the generation of cAMP.
• (1) Cell line: HEK293-GLP-1R-luc Stable Cell Line (Cobioer, CBP71117); • (2) Culture medium: DMEM+10% FBS (Gibco); • (3) Kit: cAMP detection kit (PerkinElmer). 2. Experimental Procedures • (1) HEK293-GLP1R cells were inoculated in a 384-well plate at a density of 2000 cells per well; • (2) 4× working solution of each compound was formulated; • (3) 5 μL of 4× working solution of each compound was added to corresponding well and incubated at 37° C. for 30 min; • (4) 10 μL of Eu-cAMP tracer diluted with Lysis Buffer (1/50) was added to each well; • (5) 10 μL of Ulight-anti-cAMP diluted with Lysis Buffer (1/150) was added to each well; • (6) The plate was incubated at room temperature for 1 h; • (7) The plate was read by a multimode microplate reader (excitation wavelength: 320 nm; emission wavelength: 665 nm and 620 nm). 3. Data Analysis • (1) % Activity was calculated by the following formula: % Activity=100−(Signalcmpd−SignalAve-PC)/(SignalAve-VC−SignalAve-PC)×100 • (2) The dose-response curve was plotted to calculate EC50: Y=Bottom+(Top−Bottom)/(1+10^(Log EC50−X)*HillSlope)) • X: log of agonist concentration; Y: Activity. 4. Experimental Results

GLP-1R [2] = biological target: T1, GLP-1R; experiment: GLP-1R agonistic activity by One-Lite luciferase assay in HEK293-GLP-1R-luc cells (Example 59); format: cell-based; details: 6 h incubation, read-out: cAMP EC50
Procedure, shortened: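 HEK293 cells stably expressing GLP-1R with a cAMP-responsive luciferase reporter, 30000 cells/well, exposed to compound for 6 h at 37 °C. Chemiluminescence read after 3 min with One-Lite substrate at room temperature; % activity normalised to positive and vehicle controls, EC50 from a four-parameter dose-response fit.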

[3] = In vivo pharmacokinetics in rats, oral; set-up: species or system SD rats; details: for AUC(0-t) / Cmax / half-life: rat, plasma, SD rats, PO, 1 mg/kg
Experimental: The compounds of the present disclosure were formulated with […]+90% 100 mM glycine-64 mM NaOH, and orally administered to fasted SD rats at a dose of 1 mg/kg or 5 mg/kg, respectively. At different time points (0.25, 0.5, 1.0, 2.0, 4.0, 5.0, 6.0, 7.0, 8.0, and 24 h) after administration, about 50 μL of blood samples were collected from veins into anticoagulant tubes containing EDTA-K2, and centrifuged to separate plasma. The plasma concentrations of the compounds were determined by LC-MS/MS. WinNonlin was used to calculate the pharmacokinetic parameters by using the non-compartmental analysis, and the experimental results were listed in Table 9.

[4] = rats, oral, versus example compound 67 in WO2018056453, in words

T1 sequence (P43220 24-463): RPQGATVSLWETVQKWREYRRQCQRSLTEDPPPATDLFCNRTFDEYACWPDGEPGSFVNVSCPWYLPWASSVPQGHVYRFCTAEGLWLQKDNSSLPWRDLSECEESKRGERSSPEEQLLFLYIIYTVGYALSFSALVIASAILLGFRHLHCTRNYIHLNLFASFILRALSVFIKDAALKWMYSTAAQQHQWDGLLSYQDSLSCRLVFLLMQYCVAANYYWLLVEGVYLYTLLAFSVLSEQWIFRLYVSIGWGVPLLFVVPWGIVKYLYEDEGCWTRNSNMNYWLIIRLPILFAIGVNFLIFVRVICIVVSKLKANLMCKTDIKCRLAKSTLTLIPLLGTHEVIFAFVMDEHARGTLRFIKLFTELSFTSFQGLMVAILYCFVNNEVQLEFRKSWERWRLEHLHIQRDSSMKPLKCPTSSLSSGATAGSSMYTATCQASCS

Row | Structure (SMILES) | EC50 (GLP-1R [1]) | EC50 (GLP-1R [2]) | AUC(0-t) [3] | Cmax [3] | half-life [3] | maximum plasma concentration Cmax compared with the control compound [3, 4] | oral exposure AUC compared with the control compound [3, 4]
1 | Cc1cc(-n2nc3c(c2-n2ccn(-c4ccc5c(cnn5C)c4F)c2=O)[C@H](C)N(C(=O)c2cc4cc([C@H]5CCOC(C)(C)C5)ccc4n2[C@@]2(c4noc(=O)[nH]4)C[C@@H]2C)CC32CC(F)(F)C2)cc(C)c1F [Compound 180] |  | ≤ 20 nM | 1120 ng·h/mL | 129 ng/mL | 6.4 h |  | 
2 | C=C1CC2(C1)CN(C(=O)c1cc3cc([C@H]4CCOC(C)(C)C4)ccc3n1[C@@]1(c3noc(=O)[nH]3)C[C@@H]1C)[C@@H](C)c1c2nn(-c2cc(C)c(F)c(C)c2)c1-n1ccn(-c2ccc3c(cnn3C)c2F)c1=O [Compound 218] |  | ≤ 20 nM | 990 ng·h/mL | 110 ng/mL | 11.6 h |  | 
3 | Cc1cc(-n2nc3c(c2-n2ccn(-c4ccc5c(cnn5C)c4F)c2=O)[C@H](C)N(C(=O)c2cc4cc([C@H]5CCOC(C)(C)C5)ccc4n2[C@@]2(c4noc(=O)[nH]4)C[C@@H]2C)CC32C[C@H]2C)cc(C)c1F (stereo partly drawn) [Compound 226] |  | ≤ 20 nM | 1480 ng·h/mL | 160 ng/mL | 9.3 h |  | 
4 | Cc1cc(-n2nc3c(c2-n2ccn(-c4ccc5c(cnn5C)c4F)c2=O)[C@H](C)N(C(=O)c2cc4cc([C@H]5CCOC(C)(C)C5)ccc4n2[C@@]2(c4noc(=O)[nH]4)C[C@@H]2C)CC32CC2F)cc(C)c1F (stereo partly drawn) [Compound 228] |  | ≤ 20 nM | 2400 ng·h/mL | 216 ng/mL | 13 h | higher | higher

Results, then the molecule that gave them:

Row | EC50 (GLP-1R [1]) | EC50 (GLP-1R [2]) | AUC(0-t) [3] | Cmax [3] | half-life [3] | maximum plasma concentration Cmax compared with the control compound [3, 4] | oral exposure AUC compared with the control compound [3, 4] | Structure (SMILES)
5 | ≤ 0.1 nM | ≤ 20 nM |  |  |  |  |  | Cc1cc(-n2nc3c(c2-n2ccn(-c4ccc5c(cnn5C)c4F)c2=O)[C@H](C)N(C(=O)c2cc4cc([C@H]5CCOC(C)(C)C5)ccc4n2[C@@]2(c4noc(=O)[nH]4)C[C@@H]2C)CC32CCOCC2)cc(C)c1F [Compound 43]
6 | ≤ 0.1 nM | ≤ 20 nM |  |  |  |  |  | Cc1cc(-n2nc3c(c2-n2ccn(-c4ccc5c(cnn5C)c4F)c2=O)[C@H](C)N(C(=O)c2cc4cc([C@H]5CCOC(C)(C)C5)ccc4n2[C@@]2(c4noc(=O)[nH]4)C[C@@H]2C)CC32CCNCC2)cc(C)c1F [Compound 57]
7 | ≤ 0.1 nM | ≤ 20 nM |  |  |  |  |  | Cc1cc(-n2nc3c(c2-n2ccn(-c4ccc5c(cnn5C)c4F)c2=O)[C@H](C)N(C(=O)c2cc4cc([C@H]5CCOC(C)(C)C5)ccc4n2[C@@]2(c4noc(=O)[nH]4)C[C@@H]2C)CC32CCN(C)CC2)cc(C)c1F [Compound 59]
